We go through 22 compounds from patent publication EP4737449A1 (Changchun Genescience Pharmaceutical Co., Ltd., priority 2023, dated 2025).

SMILES strings stand for the structures.

The assay deals with T1, p53-Y220C mutant protein (Homo sapiens, UniProt P04637, Y220C).
T1 construct: The recombinant Y220C p53 DBD protein with his-tag
Briefly: In vitro DNA binding activity assay (TR-FRET). The format is biochemical. To be noted: concentration required to increase the binding activity of protein to DNA by 50%. As to the method:
The activity of the compound to modulate the binding of the p53-Y220C mutant protein to DNA was detected using TR-FREt (Time-Resolved Fluorescence Resonance Energy Transfer). The recombinant Y220C p53 DBD protein with his-tag and the DNA sequence with biotin label were prepared firstly. Donor Eu(Europium)-SA(Streptavidin) can be bound to the DNA sequence through biotin, receptor for his antibody attached to alphaphycocyanin(APC, allophycocyanin), and his antibody can be bound to the Y220C p53 DBD protein with his-tag. When exposed to an excitation light with a wavelength of 340 nm, the donor Eu(Europium)-SA(Streptavidin) can emit fluorescence with a wavelength of 615 nm. If the donor and the receptor are close to each other, the donor will transfer part of the energy to the receptor and produce fluorescence with a wavelength of 665 nm. […] If there is no interaction, only 615 nm fluorescence is produced. • 1) Experimental steps • a. Adding 4 µL of dilute compound solution to each well of a 384-well microplate; • a. Adding 4 µL of 4X P53 working solution to each well of the 384-well microplate; • c. Sealing the 384-well microplate and equilibrating the system at room temperature for 60 min; • d. Adding 4 µl of biotin DNA solution to the 384-well microplate; • e. Adding 4 µl of 4X test solution (MAb Anti-6His-Eu and streptavidin-d2) to each well of the 384-well microplate; • f. Incubating overnight in the dark; and • g. Reading data of 665 nm and 615 nm wavelengths on the BMG multifunctional microplate reader. • 2) Data analysis • a. Calculating the ratio for each well (Ratio665 nm/615 nm-Ratiobackground); • b. Calculating the activity percentage (%activity) as follows: C = (Ave_Ac−Ave_Ba)/(Ave_Dc−Ave_Bd) [formula] R data = (A−Ave_Ba−CD)/(D−Ave_Bd)*(Ave_Dc−Ave_Bd) [formula] % Activity = R data/Ave_VC*100 [formula] • A: Fluorescence intensity of the sample at 665 nm; D: Fluorescence intensity of the sample at 615 nm; • Ba: Background fluorescence intensity of the culture plate at 665 nm; Bd: Background fluorescence intensity of the culture plate at 615 nm; • Dc: Background fluorescence intensity of HIS-E at 615 nm; Ac: Background fluorescence intensity of streptavidin-d2 at 665 nm); and • c. Calculating SC150 and plotting dose-effect curve
Compared to the absence of the compound of the present invention, the activation percentage of binding of the p53 mutant protein to DNA in the presence of the compound of the present invention is expressed as SC150, which indicates the concentration of the compound required to increase the DNA binding activity of the p53 mutant protein by 50%. The SC150 is calculated using Prism™.

As for `COc1cccc(C(=O)NCC#Cc2nn3c(N[C@@H]4CCN(C)C[C@@H]4F)cccc3c2CC(F)(F)F)c1` [Compound 072, N-[3-(7-{[(3S,4R)-3-fluoro-1-methylpiperidin-4-yl]amino}-3-(2,2,2-trifluoroethyl)pyrazolo[1,5-a]pyridin-2-yl)prop-2-yn-1-yl]-3-methoxybenzamide], the SC150 is given as 41 nM.
In turn, `CN1CC[C@@H](Nc2cccc3c(CC(F)(F)F)c(C#CCNC(=O)c4cnn(CC#N)c4)nn23)[C@@H](F)C1` [Compound 249, 1-cyanomethyl-N-[3-(7-{[(3S,4R)-3-fluoro-1-methylpiperidin-4-yl]amino}-3-(2,2,2-trifluoroethyl)pyrazolo[1,5-a]pyridin-2-yl)prop-2-yn-1-yl]-1H-pyrazole-4-carboxamide] gave an SC150 of 17 nM.
In turn, `CN(C)C1CC[C@@H](Nc2cccc3c(CC(F)(F)F)c(C#CCNC(=O)c4cnn(C(C)(C)C)c4N)nn23)[C@@H](F)C1` (single isomer, unassigned) [Compound 358-B] gave an SC150 of 32 nM.
The compound `CC(C)(C)n1ncc(C(=O)NCC#Cc2nn3c(N[C@@H]4CCN(C5CC5)C[C@@H]4F)cccc3c2CC(F)(F)F)c1N` [Compound 372, 5-amino-1-tert-butyl-N-(3-(7-{[(3S,4R)-1-cyclopropyl-3-fluoropiperidin-4-yl]amino}-3-(2,2,2-trifluoroethyl)pyrazolo[1,5-a]pyridin-2-yl)prop-2-yn-1-yl)-1H-pyrazole-4-carboxamide] had an SC150 of 18 nM.
Consider `Cc1c(C(=O)NCC#Cc2nn3c(N[C@@H]4CCN(C)C[C@@H]4F)cccc3c2CC(F)(F)F)cnn1C1CC1` [Compound 282, 1-cyclopropyl-N-[3-(7-{[(3S,4R)-3-fluoro-1-methylpiperidin-4-yl]amino}-3-(2,2,2-trifluoroethyl)pyrazolo[1,5-a]pyridin-2-yl)prop-2-yn-1-yl]-5-methyl-1H-pyrazole-4-carboxamide], for which the SC150 worked out at 19 nM.
As to `CN1CC[C@@H](Nc2cccc3c(CC(F)(F)F)c(C#CCNC(=O)c4cccc(F)c4)nn23)[C@@H](F)C1` [Compound 339, 3-fluoro-N-[3-(7-{[(3S,4R)-3-fluoro-1-methylpiperidin-4-yl]amino}-3-(2,2,2-trifluoroethyl)pyrazolo[1,5-a]pyridin-2-yl)prop-2-yn-1-yl]benzamide], the SC150 was found to be 92 nM.
`CN1CC[C@@H](Nc2cccc3c(CC(F)(F)F)c(C#CCNC(=O)c4cn(C)c(C(F)F)n4)nn23)[C@@H](F)C1` [Compound 309, 2-difluoromethyl-N-[3-(7-{[(3S,4R)-3-fluoro-1-methylpiperidin-4-yl]amino}-3-(2,2,2-trifluoroethyl)pyrazolo[1,5-a]pyridin-2-yl)prop-2-yn-1-yl]-1-methyl-1H-imidazole-4-carboxamide] came in with an SC150 of 74 nM.
Regarding `CC(n1cc(C(=O)NCC#Cc2nn3c(N[C@@H]4CCN(C)C[C@@H]4F)cccc3c2CC(F)(F)F)cn1)C(F)(F)F` (stereo partly drawn) [Compound 029, N-[3-(7-{[(3S,4R)-3-fluoro-1-methylpiperidin-4-yl]amino}-3-(2,2,2-trifluoroethyl)pyrazolo[1,5-a]pyridin-2-yl)prop-2-yn-1-yl]-1-(1,1,1-trifluoroprop-2-yl)-1H-pyrazole-4-carboxamide], the SC150 worked out at 15 nM.
Next, `COCC(C)(C)n1cc(C(=O)NCC#Cc2nn3c(N[C@@H]4CCN(C)C[C@@H]4F)cccc3c2CC(F)(F)F)cn1` [Compound 022, N-[3-(7-{[(3S,4R)-3-fluoro-1-methylpiperidin-4-yl]amino}-3-(2,2,2-trifluoroethyl)pyrazolo[1,5-a]pyridin-2-yl)prop-2-yn-1-yl]-1-(1-methoxy-2-methylpropan-2-yl)-1H-pyrazole-4-carboxamide]: 8 nM.
Consider `CC(C)(C)n1ncc(C(=O)NCC#Cc2nn3c(NC4CCOCC4)cccc3c2CC(F)(F)F)c1N` [Compound 361, 5-amino-1-tert-butyl-N-(3-(7-[(tetrahydro-2H-pyran-4-yl)amino]-3-(2,2,2-trifluoroethyl)pyrazolo[1,5-a]pyridin-2-yl)prop-2-yn-1-yl)-1H-pyrazole-4-carboxamide], for which the SC150 is on record as 49 nM.
`CN1CC[C@@H](Nc2cccc3c(CC(F)(F)F)c(C#CCNC(=O)c4cnn(CC(C)(C)C)c4N)nn23)[C@@H](F)C1` [Compound 287] yielded an SC150 of 23 nM.
Regarding `CN1CC[C@@H](Nc2cccc3c(CC(F)(F)F)c(C#CCNC(=O)c4cnn(C(C)(C)C#N)c4)nn23)[C@@H](F)C1` [Compound 248, 1-(1-cyano-1-methylethyl)-N-[3-(7-{[(3S,4R)-3-fluoro-1-methylpiperidin-4-yl]amino}-3-(2,2,2-trifluoroethyl)pyrazolo[1,5-a]pyridin-2-yl)prop-2-yn-1-yl]-1H-pyrazole-4-carboxamide], the SC150 is 14 nM.
In turn, `Cc1cc(N[C@@H]2CCN(C)C[C@@H]2F)n2nc(C#CCNC(=O)c3cnn(C(C)(C)C)c3N)c(CC(F)(F)F)c2c1` [Compound 360, 5-amino-1-tert-butyl-N-[3-(7-{[(3S,4R)-3-fluoro-1-methylpiperidin-4-yl]amino}-5-methyl-3-(2,2,2-trifluoroethyl)pyrazolo[1,5-a]pyridin-2-yl)prop-2-yn-1-yl]-1H-pyrazole-4-carboxamide] came in with an SC150 of 160 nM.
`CN1CC[C@@H](Nc2cccc3c(CC(F)(F)F)c(C#CCNC(=O)c4ccccn4)nn23)[C@@H](F)C1` [Compound 075, N-[3-(7-{[(3S,4R)-3-fluoro-1-methylpiperidin-4-yl]amino}-3-(2,2,2-trifluoroethyl)pyrazolo[1,5-a]pyridin-2-yl)prop-2-yn-1-yl]pyridine-2-carboxamide] had an SC150 of 95 nM.
`COc1nn(C(C)(C)C)cc1C(=O)NCC#Cc1nn2c(N[C@@H]3CCN(C)C[C@@H]3F)cccc2c1CC(F)(F)F` [Compound 043] returned an SC150 of 86 nM.
As for `COc1cncc(C(=O)NCC#Cc2nn3c(N[C@@H]4CCN(C)C[C@@H]4F)cccc3c2CC(F)(F)F)c1` [Compound 335, N-[3-(7-{[(3S,4R)-3-fluoro-1-methylpiperidin-4-yl]amino}-3-(2,2,2-trifluoroethyl)pyrazolo[1,5-a]pyridin-2-yl)prop-2-yn-1-yl]-5-methoxynicotinamide], the SC150 is given as 41 nM.
In turn, `CN1CC[C@@H](Nc2cccc3c(CC(F)(F)F)c(C#CCNC(=O)c4cnn(C5(C)CCOCC5)c4)nn23)[C@@H](F)C1` [Compound 014] gave an SC150 of 13 nM.
The compound `Cc1cc(C(=O)NCC#Cc2nn3c(N[C@@H]4CCN(C)C[C@@H]4F)cccc3c2CC(F)(F)F)cn1C` [Compound 273, N-[3-(7-{[(3S,4R)-3-fluoro-1-methylpiperidin-4-yl]amino}-3-(2,2,2-trifluoroethyl)pyrazolo[1,5-a]pyridin-2-yl)prop-2-yn-1-yl]-1,5-dimethyl-1H-pyrrole-3-carboxamide] gave an SC150 of 11 nM.
For the compound `CN1CC[C@@H](Nc2cccc3c(CC(F)(F)F)c(C#CCNC(=O)c4cn(CC(C)(C)C)nc4N)nn23)[C@@H](F)C1` [Compound 352], the SC150 was found to be 13 nM.
In the case of `CN1CC[C@@H](Nc2cccc3c(CC(F)(F)F)c(C#CCNC(=O)c4cnn(CC(F)(F)F)c4)nn23)[C@@H](F)C1` [Compound 030] it was 18 nM; in that of `CN1CC[C@@H](Nc2cccc3c(CC(F)(F)F)c(C#CCNC(=O)c4ccc(F)cc4)nn23)[C@@H](F)C1` [Compound 076, 4-fluoro-N-[3-(7-{[(3S,4R)-3-fluoro-1-methylpiperidin-4-yl]amino}-3-(2,2,2-trifluoroethyl)pyrazolo[1,5-a]pyridin-2-yl)prop-2-yn-1-yl]benzamide], 75 nM.
In turn, `CN1CC[C@@H](Nc2cccc3c(CC(F)(F)F)c(C#CCNC(=O)c4cnn(-c5ccccc5)c4)nn23)[C@@H](F)C1` [Compound 015, N-[3-(7-{[(3S,4R)-3-fluoro-l-methylpiperidin-4-yl]amino}-3-(2,2,2-trifluoroethyl)pyrazolo[1,5-a]pyridin-2-yl)prop-2-yn-1-yl]-1-phenyl-1H-pyrazole-4-carboxamide] showed an SC150 of 62 nM.
